Patent EP2465840A1, “Terpene ether” (CABB GmbH, priority 2010, dated 2012)
Entries after “also recorded” stand apart in the source; their conditions may differ.

Columns and labels:
Type in all cases: physicochemical
[1] = Appearance of cleaning formulation after 24 h
[2] = pH of cleaning formulation after addition of terpene ether
[3] = Foam height and foam stability of formulation; conditions: for h1: Schaumhöhe 5 Minuten nach dem Mischen; for h1 / h0: Lösung mit 0,5 % WAS; for h0: Schaumhöhe eine Minute nach dem Mischen; for Stabilität: Schaumstabilität (h1/h0)*100
Procedure: Die Schaumhöhe der Formulierungen wurde nach folgender Methode ermittelt: In einem 400 ml Becher wurden 100 g einer wässrigen Lösung mit 0,5 % WAS hergestellt. Für eine Minute wurde die Lösung bei […] runden […] wurde die […] Minute […]0) und 5 […]. Die Schaumstabilität in % ergibt sich dann über (h1/h0)*100.

[4] = Brookfield viscosity (25°C) of cleaning formulation 24 h after addition of terpene ether
Procedure: Im Rahmen der vorliegenden Erfindung wird die Brookfield-Viskosität einer wässrigen Zusammensetzung vorzugsweise mittels einem RTV Brookfield-Viskosimeter bei 25°C ermittelt, besonders bevorzugt mit einer Spindel # 3 oder # 4.
Die in Tabelle 1 angegebene Reinigungsformulierung wurde untersucht. Tabelle 1: Reinigungsformulierung (WAS 15 %)
Zu dieser Formulierung wurden NP 1 oder NP 27 gegeben. Die gemessenen Brookfield-Viskositätswerte nach 24 Stunden werden in Tabelle 2 und 3 zusammengefasst. Tabelle 2: Brookfield-Viskosität (25°C)
Zu dieser Formulierung wurden NP 1 oder NP 27 sowie danach Natriumchlorid gegeben. Die gemessenen Brookfield-Viskositätswerte nach 24 Stunden werden in den folgenden Tabellen zusammengefasst. Tabelle 13: Brookfield-Viskosität (25°C)

[5] = Visual evaluation of foam (foam appearance, bubble size); design: key to Blasengröße nach 1 min. / Blasengröße nach 5 min.: klein (1); mittel (2); mittel-groß (3); groß (4); sehr groß (5); key to Aussehen des Schaums nach 1 min. / Aussehen des Schaums nach 5 min.: verschwindend (1); locker (2); mittelkompakt (3); sehr kompakt (4)
Procedure: Die Qualität des Schaums wurde visuell nach der folgenden Methode festgestellt: 100 g der Lösung mit 0,5 % WAS wurden in einen 250 ml Glaszylinder mit Schraubverschluss und einem Innendurchmesser von 35 mm überführt. Der Zylinder wurde 10 mal gedreht und die Blasengröße und die Schaumkompaktheit wurden nach einer Minute nach dem Mischen und nach 5 Minuten ermittelt. Dabei erfolgte die Beurteilung auf der Grundlage der folgenden beschreibenden Parameter:
Aussehen des Schaums: verschwindend (1), locker (2), mittelkompakt (3), sehr kompakt (4)
Blasengröße: klein (1), mittel (2), mittel-groß (3), groß (4), sehr groß (5) Tabelle 4: […]

[6] = Reinigungsformulierung enthaltend Coco Glucosid, +0,5 %
[7] = Reinigungsformulierung enthaltend Coco Glucosid, +1 %
[8] = Reinigungsformulierung enthaltend Coco Glucosid, +5 %
[9] = Reinigungsformulierung enthaltend Dinatriumlaurylsuccinat (wässrig), +0,5 %
[10] = Reinigungsformulierung enthaltend Dinatriumlaurylsuccinat (wässrig), +1 %
[11] = Reinigungsformulierung enthaltend Dinatriumlaurylsuccinat (wässrig), +5 %
[12] = Reinigungsformulierung enthaltend Coco Glucosid, 0,5 %
[13] = Reinigungsformulierung enthaltend Coco Glucosid, 1 %
[14] = Reinigungsformulierung enthaltend Coco Glucosid, 5 %
[15] = Reinigungsformulierung enthaltend Dinatriumlaurylsuccinat (wässrig), 0,5 %
[16] = Reinigungsformulierung enthaltend Dinatriumlaurylsuccinat (wässrig), 1 %
[17] = Reinigungsformulierung enthaltend Dinatriumlaurylsuccinat (wässrig), 5 %
[18] = Reinigungsformulierung enthaltend Dinatriumlaurylsuccinat (wässrig), +0,5 %, nach 24 Stunden
[19] = Reinigungsformulierung enthaltend Dinatriumlaurylsuccinat (wässrig), +1 %, nach 24 Stunden
[20] = Reinigungsformulierung enthaltend Dinatriumlaurylsuccinat (wässrig), +5 %, nach 24 Stunden
[21] = Reinigungsformulierung enthaltend Natriumlaurylethersulfat, Dinatriumcocoamphodiacetat, 0,5 % NaCl, +0,5 %, nach 24 Stunden
[22] = Reinigungsformulierung enthaltend Natriumlaurylethersulfat, Dinatriumcocoamphodiacetat, 0,5 % NaCl, +0,25 %, nach 24 Stunden
[23] = Reinigungsformulierung enthaltend Natriumlaurylethersulfat, Dinatriumcocoamphodiacetat, 0,5 % NaCl, +1 %, nach 24 Stunden
[24] = Reinigungsformulierung enthaltend Natriumlaurylethersulfat, Dinatriumcocoamphodiacetat, 0,5 % NaCl, +2 %, nach 24 Stunden
[25] = Reinigungsformulierung enthaltend Natriumlaurylethersulfat, Dinatriumcocoamphodiacetat, 1 % NaCl, +0,5 %, nach 24 Stunden
[26] = Reinigungsformulierung enthaltend Natriumlaurylethersulfat, Dinatriumcocoamphodiacetat, 1 % NaCl, +0,25 %, nach 24 Stunden
[27] = Reinigungsformulierung enthaltend Natriumlaurylethersulfat, Dinatriumcocoamphodiacetat, 1 % NaCl, +1 %, nach 24 Stunden
[28] = Reinigungsformulierung enthaltend Natriumlaurylethersulfat, Dinatriumcocoamphodiacetat, 1 % NaCl, +2 %, nach 24 Stunden
[29] = Reinigungsformulierung enthaltend Natriumlaurylethersulfat, Dinatriumcocoamphodiacetat, +0,5 %, nach 24 Stunden
[30] = Reinigungsformulierung enthaltend Natriumlaurylethersulfat, Dinatriumcocoamphodiacetat, +0,25 %, nach 24 Stunden
[31] = Reinigungsformulierung enthaltend Natriumlaurylethersulfat, Dinatriumcocoamphodiacetat, +1 %, nach 24 Stunden
[32] = Reinigungsformulierung enthaltend Natriumlaurylethersulfat, Dinatriumcocoamphodiacetat, +2 %, nach 24 Stunden

CC1(C)C2CCC1(C)C(OCC(O)CO)C2 (stereo not drawn) [NP 1, Glycerin-isobornylether]
Aussehen nach 24 h [1, 6]: transparent; also recorded: Gel-flüssig | Aussehen nach 24 h [1, 7]: transparent; also recorded: flüssig | Aussehen nach 24 h [1, 8]: weiß and flüssig | Aussehen nach 24 h [1, 9]: transparent; also recorded: flüssig | Aussehen nach 24 h [1, 10]: transparent; also recorded: Gel-flüssig | Aussehen nach 24 h [1, 11]: weiß and flüssig | Aussehen nach 24 h ([1]; Reinigungsformulierung enthaltend Natriumlaurylethersulfat, Dinatriumcocoamphodiacetat, 0,5 % NaCl, +0,5 %): transparent Gel-flüssig | Aussehen nach 24 h ([1]; Reinigungsformulierung enthaltend Natriumlaurylethersulfat, Dinatriumcocoamphodiacetat, 0,5 % NaCl, +0,25 %): transparent Gel-flüssig | Aussehen nach 24 h ([1]; Reinigungsformulierung enthaltend Natriumlaurylethersulfat, Dinatriumcocoamphodiacetat, 0,5 % NaCl, +1 %): transparent Gel | Aussehen nach 24 h ([1]; Reinigungsformulierung enthaltend Natriumlaurylethersulfat, Dinatriumcocoamphodiacetat, 0,5 % NaCl, +2 %): transparent flüssig | Aussehen nach 24 h ([1]; Reinigungsformulierung enthaltend Natriumlaurylethersulfat, Dinatriumcocoamphodiacetat, 1 % NaCl, +0,5 %): transparent Gel | Aussehen nach 24 h ([1]; Reinigungsformulierung enthaltend Natriumlaurylethersulfat, Dinatriumcocoamphodiacetat, 1 % NaCl, +0,25 %): transparent Gel | Aussehen nach 24 h ([1]; Reinigungsformulierung enthaltend Natriumlaurylethersulfat, Dinatriumcocoamphodiacetat, 1 % NaCl, +1 %): transparent Gel | Aussehen nach 24 h ([1]; Reinigungsformulierung enthaltend Natriumlaurylethersulfat, Dinatriumcocoamphodiacetat, 1 % NaCl, +2 %): transparent flüssig | Aussehen nach 24 h ([1]; Reinigungsformulierung enthaltend Natriumlaurylethersulfat, Dinatriumcocoamphodiacetat, +0,5 %): transparent flüssig | Aussehen nach 24 h ([1]; Reinigungsformulierung enthaltend Natriumlaurylethersulfat, Dinatriumcocoamphodiacetat, +0,25 %): transparent flüssig | Aussehen nach 24 h ([1]; Reinigungsformulierung enthaltend Natriumlaurylethersulfat, Dinatriumcocoamphodiacetat, +1 %): transparent Gel-flüssig | Aussehen nach 24 h ([1]; Reinigungsformulierung enthaltend Natriumlaurylethersulfat, Dinatriumcocoamphodiacetat, +2 %): transparent Gel-flüssig | pH [2, 6]: 6 | pH [2, 7]: 6 | pH [2, 8]: 6 | pH [2, 9]: 6,3 | pH [2, 10]: 6,3 | pH [2, 11]: 6,3 | h1 [3, 12]: 200 mm | h0 [3, 12]: 230 mm | Stabilität [3, 12]: 87% | h1 [3, 13]: 210 mm | h0 [3, 13]: 235 mm | Stabilität [3, 13]: 89% | h1 [3, 14]: 230 mm | h0 [3, 14]: 260 mm | Stabilität [3, 14]: 88% | h1 [3, 15]: 220 mm | h0 [3, 15]: 245 mm | Stabilität [3, 15]: 90% | h1 [3, 16]: 225 mm | h0 [3, 16]: 250 mm | Stabilität [3, 16]: 90% | h1 [3, 17]: 225 mm | h0 [3, 17]: 250 mm | Stabilität [3, 17]: 90% | BF-Viskosität (2,5 rpm) [4, 6]: 18200 mPas | BF-Viskosität (5 rpm) [4, 6]: 17800 mPas | BF-Viskosität (2,5 rpm) [4, 7]: 3400 mPas | BF-Viskosität (5 rpm) [4, 7]: 3300 mPas | BF-Viskosität (2,5 rpm) [4, 8]: 1600 mPas | BF-Viskosität (5 rpm) [4, 8]: 1100 mPas | BF-Viskosität (2,5 rpm) [4, 18]: 6200 mPas | BF-Viskosität (5 rpm) [4, 18]: 6100 mPas | BF-Viskosität (2,5 rpm) [4, 19]: 17600 mPas | BF-Viskosität (5 rpm) [4, 19]: 17200 mPas | BF-Viskosität (2,5 rpm) [4, 20]: 3800 mPas | BF-Viskosität (5 rpm) [4, 20]: 1800 mPas | BF-Viskosität (2,5 rpm) [4, 21]: 22800 mPas | BF-Viskosität (5 rpm) [4, 21]: 21000 mPas | BF-Viskosität (2,5 rpm) [4, 22]: 17200 mPas | BF-Viskosität (5 rpm) [4, 22]: 16100 mPas | BF-Viskosität (2,5 rpm) [4, 23]: 32000 mPas | BF-Viskosität (5 rpm) [4, 23]: 29600 mPas | BF-Viskosität (2,5 rpm) [4, 24]: 12800 mPas | BF-Viskosität (5 rpm) [4, 24]: 12600 mPas | BF-Viskosität (2,5 rpm) [4, 25]: 37600 mPas | BF-Viskosität (5 rpm) [4, 25]: 33200 mPas | BF-Viskosität (2,5 rpm) [4, 26]: 31200 mPas | BF-Viskosität (5 rpm) [4, 26]: 27600 mPas | BF-Viskosität (2,5 rpm) [4, 27]: 38400 mPas | BF-Viskosität (5 rpm) [4, 27]: 36000 mPas | BF-Viskosität (2,5 rpm) [4, 28]: 4400 mPas | BF-Viskosität (5 rpm) [4, 28]: 4200 mPas | BF-Viskosität (2,5 rpm) [4, 29]: 10400 mPas | BF-Viskosität (5 rpm) [4, 29]: 10200 mPas | BF-Viskosität (2,5 rpm) [4, 30]: 7200 mPas | BF-Viskosität (5 rpm) [4, 30]: 7200 mPas | BF-Viskosität (2,5 rpm) [4, 31]: 22800 mPas | BF-Viskosität (5 rpm) [4, 31]: 22000 mPas | BF-Viskosität (2,5 rpm) [4, 32]: 18400 mPas | BF-Viskosität (5 rpm) [4, 32]: 18200 mPas | Aussehen des Schaums nach 1 min. [5, 6]: 3 | Aussehen des Schaums nach 5 min. [5, 6]: 1 | Blasengröße nach 1 min. [5, 6]: 3 | Blasengröße nach 5 min. [5, 6]: 5 | Aussehen des Schaums nach 1 min. [5, 7]: 3 | Aussehen des Schaums nach 5 min. [5, 7]: 1 | Blasengröße nach 1 min. [5, 7]: 3 | Blasengröße nach 5 min. [5, 7]: 5 | Aussehen des Schaums nach 1 min. [5, 8]: 3 | Aussehen des Schaums nach 5 min. [5, 8]: 1 | Blasengröße nach 1 min. [5, 8]: 3 | Blasengröße nach 5 min. [5, 8]: 5 | Aussehen des Schaums nach 1 min. [5, 9]: 3 | Aussehen des Schaums nach 5 min. [5, 9]: 2 | Blasengröße nach 1 min. [5, 9]: 3 | Blasengröße nach 5 min. [5, 9]: 4 | Aussehen des Schaums nach 1 min. [5, 10]: 3 | Aussehen des Schaums nach 5 min. [5, 10]: 2 | Blasengröße nach 1 min. [5, 10]: 3 | Blasengröße nach 5 min. [5, 10]: 4 | Aussehen des Schaums nach 1 min. [5, 11]: 3 | Aussehen des Schaums nach 5 min. [5, 11]: 1 | Blasengröße nach 1 min. [5, 11]: 4 | Blasengröße nach 5 min. [5, 11]: 5
